# “Also recorded” adds a separate entry of the source. Where two headings read alike, the source gives them in different places.
# Key:
# [1] = test system: tissue non-specific alkaline phosphatase (TNAP); assay: TNAP activity in EVs released by SMCs; format: cell-based, human; conditions: AG 1478 2.5 μM, FIG. 8B
# Description: To obtain EVs from the mouse aortae, following collagenase digestion and tissue homogenization using a Dounce homogenizer, cells and large extracellular aggregates are removed by centrifugation steps of 1,000×g and 10,000×g, respectively. EVs are isolated from the remaining supernatant by ultracentrifugation at 100,000×g. Western blotting analyses of commonly enriched EV markers determine the efficacy of the isolation procedures. The presence of caveolin-1 and activity of the pro-calcific enzyme TNAP are also assessed in the extracted EVs.
# (§1) EVs from the in vitro samples are isolated using previously established procedures, which includes 1,000×g and 10,000×g centrifugations to remove cells and large contaminants and a 100,000×g ultracentrifugation to obtain EVs suspended in conditioned media.
# [2] = test system: caveolin-1; assay: Immunofluorescence of caveolin-1 localization in SMCs in pro-calcific media; format: cell-based, human; conditions: 1 μM AG1478, SMCs in pro-calcific media; FIG. 13
# Description: (§2) The vasodilatory effects of RXFP1 agonism occurs through interactions within caveolae on endothelial cells. G-protein-coupled receptors (GPCRs), such as RXFP1, use caveolae scaffolding domains to regulate interactions with other proteins and activate downstream signaling. […] RXFP1 agonism may stabilize existing caveolae, leading to the observed decreased caveolin-1 turnover. RXFP1 agonist-induced stabilization of caveolae may prevent the formation of calcifying EVs.
# (§3) To determine changes in caveolin-1 associated with the culture conditions and treatments, western blotting and immunofluorescence are used to assay caveolin-1 phosphorylation on tyrosine 14. This site is associated with changes in EGFR activity and caveolae internalization. Immunofluorescence is then used to assess the localization of caveolin-1 within the SMCs for the different culture conditions at these time points. Western blotting is used to quantify caveolin-1 in EVs relative to SMC lysates.
# [3] = test system: dynamin; conditions: cited from earlier work
# [4] = test system: CKD mice; assay: Aortic calcification in CKD mice fed a high phosphate diet; format: in vivo, mouse; conditions: for calcification in treated CKD mice: CKD diet regimen, AG1478 20 mg/kg or ML290 30 mg/kg oral gavage every 2 days
# Description: Eight-week old SMMHC-CreER^T2+/Cav1^fl/fl mice receive daily intraperitoneal injections of either peanut oil (vehicle control) or tamoxifen (1 mg/kg) for two weeks. Following the final injection, mice receive an adenine-enriched (0.2%) diet for 6 weeks to induce kidney dysfunction. Elevated phosphate (1.8%) is then added to the diet to induce medial calcification. Using a sensitive near-infrared calcium mineral tracer (OsteoSense 680), significant aortic calcification in mice was observed after 2 weeks of the high phosphate diet (FIG. 1). Vascular calcification continues to increase for up to 6 weeks of the high phosphate diet.
# To test the therapeutic efficacy of these small molecules, e.g., ML290 or AG1478, the same CKD diet regimen is used as discussed above. A mouse model designed to test agonists for human RXFP1 is utilized.
# Beginning at prescribed time points (FIG. 11), mice are treated with the EGFR inhibitor, AG1478 (20 mg/kg), or ML290 (30 mg/kg) via oral gavage every 2 days. Control mice receive vehicle gavage. The treatments begin either at the initiation of the high phosphate diet (to determine if the treatments prevent mineral formation) or after two weeks of the high phosphate diet (to determine if the treatments can reverse medial calcification).
# [5] = test system: primary human coronary artery smooth muscle cells; assay: Calcific mineral formation by SMCs cultured in pro-calcific (osteogenic) media in vitro; format: cell-based; conditions: for SMC mineralization in vitro: AG 1478 2.5 μM, FIG. 8A
# Description: Pro-calcific media, optimized to induce calcification, consists of growth media supplemented with 10 nM dexamethasone, 100 μM L-ascorbic acid, and 10 mM β-glycerolphosphate. All in vitro experiments proceed for 14 days, when release of calcifying EVs from human coronary artery SMCs in pro-calcific media peaks.
# […] Changes in SMC phenotype are assayed in the culture conditions and in response to the small molecule treatments by measuring expression of osteogenic and SMC relevant genes at the time points considered. In vitro mineralization is assessed using alizarin red S staining, extraction, and colorimetric analyses after 21 days in culture.
# [6] = test system: caveolin-1; assay: Western blotting of caveolin-1 in SMCs and in EVs under pro-calcific conditions; format: cell-based, human; conditions: AG 1478 2.5 μM; for EV caveolin-1: EVs under pro-calcific conditions, FIG. 8D; for intracellular caveolin-1: SMCs, FIG. 8C
# Description: as §1, §3
# [7] = target: T1, RXFP1 (Homo sapiens, UniProt Q9HBX9); conditions: cited from earlier work
# T1 sequence (Q9HBX9 1-757): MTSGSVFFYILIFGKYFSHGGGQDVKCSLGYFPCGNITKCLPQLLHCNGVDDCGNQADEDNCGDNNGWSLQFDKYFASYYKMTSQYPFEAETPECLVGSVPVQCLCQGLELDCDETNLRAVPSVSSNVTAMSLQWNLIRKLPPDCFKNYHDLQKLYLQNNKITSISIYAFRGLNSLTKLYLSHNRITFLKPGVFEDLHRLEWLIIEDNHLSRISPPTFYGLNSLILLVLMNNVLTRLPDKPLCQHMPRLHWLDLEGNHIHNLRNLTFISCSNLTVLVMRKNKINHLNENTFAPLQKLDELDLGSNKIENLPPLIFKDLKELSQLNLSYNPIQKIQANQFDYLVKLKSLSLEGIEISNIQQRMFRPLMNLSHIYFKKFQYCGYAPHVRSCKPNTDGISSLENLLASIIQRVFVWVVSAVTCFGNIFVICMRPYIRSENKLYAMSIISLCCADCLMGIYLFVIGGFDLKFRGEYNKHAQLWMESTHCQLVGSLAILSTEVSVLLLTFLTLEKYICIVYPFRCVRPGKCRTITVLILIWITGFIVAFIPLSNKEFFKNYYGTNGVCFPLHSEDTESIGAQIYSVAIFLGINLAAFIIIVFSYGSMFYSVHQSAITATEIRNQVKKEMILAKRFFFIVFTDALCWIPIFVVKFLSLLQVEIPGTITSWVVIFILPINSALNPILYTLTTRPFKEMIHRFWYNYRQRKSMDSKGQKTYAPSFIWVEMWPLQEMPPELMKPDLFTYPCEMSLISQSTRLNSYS
# [8] = test system: caveolin-1; assay: Caveolin-1 gene expression in pro-calcific SMC culture; format: cell-based, human; conditions: SMCs, pro-calcific conditions, 24 h; FIG. 14
# Description: as §2
# [9] = Pharmacokinetics study of ML290 via oral administration in hRXFP1/hRXFP1 mice; format: in vivo; conditions: mouse, 30 mg/kg oral
# [10] = Adverse events in 25-week atherosclerotic mouse study; format: in vivo; conditions: mice, oral gavage, preliminary 25-week atherosclerotic study
# [11] = test system: THP1 cells; conditions: cited from earlier work
# [12] = test system: atherogenic Apoe−/− mice; assay: Calcification (OsteoSense fluorescence) in atherogenic Apoe-/- mice; format: in vivo, mouse; conditions: oral gavage 30 mg/kg; for OsteoSense fluorescence (mineral) vs vehicle treated controls: after 25 weeks of atherogenic diet
# Description: A chow control is shown for comparison (first aorta). C) Quantification of mice treated with ML290 at the initiation of the atherogenic diet. […] D) Quantification of OsteoSense signal in mice treated at 15 weeks of atherogenic diet, indicating potential of treatment to reverse existing remodeling. #p<0.0001.
# Relaxin Family Peptide Receptor 1 (RXFP1) agonism induces vasodilation through a mechanism that may involve interactions with endothelial nitric oxide synthase within caveolae. The relaxin peptide, activating RXFP1, has therapeutic potential in treating fibrosis and vasculopathies.
# [13] = target: T1, RXFP1; conditions: cited from earlier work; remark: listed apart in the source
# [14] = test system: PPARGC1A; assay: PPARGC1A gene expression in SMCs cultured in pro-calcific media; format: cell-based, human; conditions: FIG. 15
# Description: The modulation of a different GPCR, the serotonin 2B receptor, alters intracellular trafficking to prevent calcification by aortic valve cells. Both 5-HT2B and RXFP1 can modulate vascular tone through interactions with nitric oxide synthase—a known caveolin-1 interactor. RXFP1 may, however, affect caveolin-1 protein stability directly. Peroxisome Proliferator-Activated Receptor γ (PPARγ) activation promotes lysosomal degradation of caveolin-1 in pulmonary artery SMCs. […] Therefore, thus result indicates the potential mechanism for the observed anti-calcific effects of ML290.
# [15] = target: T2, rodent receptor (Mus musculus, UniProt Q6R6I7); conditions: cited from earlier work
# T2 sequence (Q6R6I7 1-758): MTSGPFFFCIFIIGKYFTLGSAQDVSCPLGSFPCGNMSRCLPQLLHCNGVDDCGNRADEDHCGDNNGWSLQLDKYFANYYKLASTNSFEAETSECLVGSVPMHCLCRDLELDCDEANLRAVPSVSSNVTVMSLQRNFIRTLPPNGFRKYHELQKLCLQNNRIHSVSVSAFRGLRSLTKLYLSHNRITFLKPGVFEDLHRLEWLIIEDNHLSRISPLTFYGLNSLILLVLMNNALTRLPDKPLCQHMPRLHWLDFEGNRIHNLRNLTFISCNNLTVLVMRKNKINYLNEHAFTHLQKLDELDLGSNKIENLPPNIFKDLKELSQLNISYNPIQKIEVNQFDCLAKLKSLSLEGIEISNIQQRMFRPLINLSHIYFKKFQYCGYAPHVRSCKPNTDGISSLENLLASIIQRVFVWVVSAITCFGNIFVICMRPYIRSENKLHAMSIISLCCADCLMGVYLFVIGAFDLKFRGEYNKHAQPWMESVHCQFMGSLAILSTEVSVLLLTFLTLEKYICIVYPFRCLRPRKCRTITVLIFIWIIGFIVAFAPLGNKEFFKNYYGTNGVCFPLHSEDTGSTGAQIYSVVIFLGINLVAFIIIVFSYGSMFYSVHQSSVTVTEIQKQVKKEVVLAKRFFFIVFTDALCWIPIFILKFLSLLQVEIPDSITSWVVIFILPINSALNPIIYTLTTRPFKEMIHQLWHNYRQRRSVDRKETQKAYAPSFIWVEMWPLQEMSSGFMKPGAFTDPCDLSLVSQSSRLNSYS
# [16] = test system: hypertensive rats; conditions: chronic treatment; cited from earlier work
# [17] = in vivo; cited from earlier work
molecule,measurement,setting,value
COc1cc2ncnc(Nc3cccc(Cl)c3)c2cc1OC [AG1478],EV TNAP activity,[1],reduces activity
same,EV TNAP activity,[1]; listed as AG 1478,reduces EV TNAP activity
same,caveolin-1 plasma membrane (peripheral) localization,[2],maintained the peripheral localization of caveolin-1; also recorded: preserves caveolin-1 (red) plasma membrane localization
same,dynamin activity,[3],reduces dynamin activity
same,calcification in treated CKD mice,[4],Diminished calcification
same,SMC mineralization in vitro,[5],prevents calcific mineral formation
same,SMC mineralization in vitro,[5]; listed as AG 1478,prevents SMC mineralization
same,EV caveolin-1,[6],reduces caveolin-1 released in EVs; also recorded: decreases EV caveolin-1
same,EV caveolin-1,[6]; listed as AG 1478,reduces EV caveolin-1
same,intracellular caveolin-1,[6],does not change intracellular caveolin-1; also recorded: without affecting intracellular caveolin-1 levels
same,intracellular caveolin-1,[6]; listed as AG 1478,does not affect intracellular caveolin-1
CC(C)Oc1ccccc1C(=O)Nc1ccccc1C(=O)Nc1cccc(S(=O)(=O)C(F)(F)F)c1 [ML290],selectivity towards RXFP1 over RXFP2 receptors,[7],> 100 fold
same,caveolin-1 gene expression,[8],decreases caveolin-1 gene expression; also recorded: reduces caveolin-1 expression
same,half-life,"[9]; aorta, read-out: t½ in aorta (converted)",8 h
same,half-life,"[9]; serum, read-out: t½ in serum (converted)",11 h
same,adverse events,[10],No adverse events
same,VEGF gene expression,[11],increase
same,cAMP levels,[11],increase
same,calcification in vivo,"[12]; Apoe−/− mice, FIG. 9B, 30 mg/kg",mitigates calcification; also recorded: reduces calcification in vivo
same,OsteoSense fluorescence (mineral) vs vehicle treated controls,[12]; treated after 15 weeks of atherogenic diet,Lower OsteoSense fluorescence
same,OsteoSense fluorescence (mineral) vs vehicle treated controls,[12]; treated at the beginning of the atherogenic diet,Lower OsteoSense fluorescence
same,calcification in treated CKD mice,[4],Diminished calcification
same,aortic calcification,"[4]; CKD mice, 30 mg/kg oral gavage from initiation of high phosphate diet, 2 weeks, FIG. 12, 30 mg/kg",significant prevented aortic calcification; also recorded: significantly prevents aortic calcification
same,agonism of human RXFP1,[13],potent and efficacious non-peptide agonist; also recorded: specific agonist for human RXFP1
same,PPARGC1A gene expression,[14],increases PPARGC1A; also recorded: increased expression of PPARGC1A
same,activation of rodent receptor,[15],does not activate rodent receptor
same,mineral formation by vascular smooth muscle cells in vitro,"[5]; ML290 5 μM, FIG. 9A",significantly reduces mineral formation
same,anti-calcification effect on human SMCs in vitro,[5]; primary human coronary artery smooth muscle cells cultured in osteogenic stimuli,mitigates calcification; also recorded: profound anti-calcification effects
relaxin,arterial compliance,[16],improved arterial compliance
same,safety and tolerability,[17],safe and well-tolerated

# Source: patent US11235033B1, “Materials and methods for the treatment of vascular calcification” (THE FLORIDA INTERNATIONAL UNIVERSITY BOARD OF TRUSTEES, priority 2020, dated 2022)
